Source: patent publication EP0271271B1, “Pharmaceutical preparations” (BEECHAM GROUP PLC, priority 1986, dated 1988)

Tested on: conscious male spontaneously hypertensive rats (SHR)
Experiment: Systolic blood pressure by inflatable tail cuff in conscious spontaneously hypertensive rats
Assay type: in vivo
Experimental: Potentiation of the anti-hypertensive response to Compounds of formula (I) has been observed in conscious male spontaneously hypertensive rats (SHR) when the compounds were combined with the angiotensin I converting enzyme inhibitor enalapril. For the purpose of the experiment 36 rats were allotted at random to 4 groups, each of 9 rats. Systolic blood pressure (SBP) was measured non-invasively using an inflatable tail cuff technique as described in the aforementioned European Patent references. The protocol of the experiment was as follows: [table] […] The results were as shown in Table I. The protocol of the experiment for pinacidil was as follows: [table] […]

**Q.** Which “% change (± sem) of SBP” value (Group 3: vehicle at 0 h, Compound 1 0.3 mg/kg po at 0.75 h, time 0.75 h (time of compound dosing), initial SBP 262±3 mmHg) does the source give for `CC1(C)Oc2ccc(C#N)cc2[C@@H](N2CCCC2=O)[C@@H]1O` (relative stereo) [Compound 1, 6-cyano-3,4-dihydro-2,2-dimethyl-trans-4-(2-oxo-1-pyrrolidinyl)-2H-benzo[b]pyran-3-ol] here?
**A.** The value was -2±2%.

**Q.** What about the “% change (± sem) of SBP” value (Group 3: vehicle at 0 h, Compound 1 0.3 mg/kg po at 0.75 h, time 1.75 h, initial SBP 262±3 mmHg) of the same compound?
**A.** Its value is -43±2%.

**Q.** And the “% change (± sem) of SBP” value (Group 3: vehicle at 0 h, Compound 1 0.3 mg/kg po at 0.75 h, time 2.75 h, initial SBP 262±3 mmHg)?
**A.** Its value is -21±2%.

**Q.** What about the “% change (± sem) of SBP” value (Group 3: vehicle at 0 h, Compound 1 0.3 mg/kg po at 0.75 h, time 4.75 h, initial SBP 262±3 mmHg) of the same compound?
**A.** The value was -15±3%.

**Q.** For `CC1(C)Oc2ccncc2[C@@H](N2CCCC2=O)[C@@H]1O` (relative stereo) [Compound 2, trans-3,4-dihydro-2,2-dimethyl-4-(2-oxopyrrolidin-1-yl)-2H-pyrano[3,2-c]pyridin-3-ol], which “SBP change (quantity not headed in table; as % change of Table I)” value (Compound 2 0.6 mg/kg po alone, time 0.75, time-0 value 244±6) is on record?
**A.** The value was 1±2.

**Q.** What about the “SBP change (quantity not headed in table; as % change of Table I)” value (Compound 2 0.6 mg/kg po alone, time 1.75, time-0 value 244±6) of the same compound?
**A.** The value was -20±2.

**Q.** And the “SBP change (quantity not headed in table; as % change of Table I)” value (Compound 2 0.6 mg/kg po alone, time 2.75, time-0 value 244±6)?
**A.** The value was -12±3.

**Q.** And the “SBP change (quantity not headed in table; as % change of Table I)” value (Compound 2 0.6 mg/kg po alone, time 4.75, time-0 value 244±6)?
**A.** The value was -11±2.

**Q.** Which results are given for `CN1CCCN(C2c3cc(C#N)ccc3OC(C)(C)C2O)C1=O` (stereo not drawn) [Compound 3, 6-cyano-3,4-dihydro-2,2-dimethyl-trans-4-(N-3-methyltetrahydro-2-pyrimidone)-2H-benzo[b]pyran-3-ol]?
**A.** SBP change (quantity not headed in table; as % change of Table I) (Compound 3 2.0 mg/kg po alone, time 0.75, time-0 value 253±6): 0±3; SBP change (quantity not headed in table; as % change of Table I) (Compound 3 2.0 mg/kg po alone, time 1.75, time-0 value 253±6): -20±3; SBP change (quantity not headed in table; as % change of Table I) (Compound 3 2.0 mg/kg po alone, time 2.75, time-0 value 253±6): -22±3; SBP change (quantity not headed in table; as % change of Table I) (Compound 3 2.0 mg/kg po alone, time 4.75, time-0 value 253±6): -21±3

**Q.** For `CC(=O)NC1c2cc(C#N)ccc2OC(C)(C)C1O` (stereo not drawn) [Compound 4, trans-4-N-acetylamino-6-cyano-3,4-dihydro-2,2-dimethyl-2H-benzo[b]pyran-3-ol], which “SBP change (quantity not headed in table; as % change of Table I)” value (Compound 4 0.15 mg/kg po alone, time 0.75, time-0 value 281±5) is on record?
**A.** The value was 0±2.

**Q.** And the “SBP change (quantity not headed in table; as % change of Table I)” value (Compound 4 0.15 mg/kg po alone, time 1.75, time-0 value 281±5)?
**A.** The value was -26±4.

**Q.** What about the “SBP change (quantity not headed in table; as % change of Table I)” value (Compound 4 0.15 mg/kg po alone, time 2.75, time-0 value 281±5) of the same compound?
**A.** The value was -23±4.

**Q.** And the “SBP change (quantity not headed in table; as % change of Table I)” value (Compound 4 0.15 mg/kg po alone, time 4.75, time-0 value 281±5)?
**A.** The value was -13±2.

**Q.** How did the “SBP change (quantity not headed in table; as % change of Table I)” value (Compound 2 experiment: Compound (A) 3 mg/kg po alone, time 0.75, time-0 value 247±3) turn out when `CCOC(=O)[C@H](CCc1ccccc1)N[C@@H](C)C(=O)N1CCC[C@H]1C(=O)O` [Enalapril] was run?
**A.** Its value is -9±1.

**Q.** What about the “SBP change (quantity not headed in table; as % change of Table I)” value (Compound 2 experiment: Compound (A) 3 mg/kg po alone, time 1.75, time-0 value 247±3) of the same compound?
**A.** The value was -22±2.

**Q.** What about the “SBP change (quantity not headed in table; as % change of Table I)” value (Compound 2 experiment: Compound (A) 3 mg/kg po alone, time 2.75, time-0 value 247±3) of the same compound?
**A.** The value was -14±3.

**Q.** What about the “SBP change (quantity not headed in table; as % change of Table I)” value (Compound 2 experiment: Compound (A) 3 mg/kg po alone, time 4.75, time-0 value 247±3) of the same compound?
**A.** The value was -16±2.

**Q.** And the “SBP change (quantity not headed in table; as % change of Table I)” value (Compound 3 experiment: Compound (A) 3 mg/kg po alone, time 0.75, time-0 value 254±4)?
**A.** The value was -8±2.

**Q.** And the “SBP change (quantity not headed in table; as % change of Table I)” value (Compound 3 experiment: Compound (A) 3 mg/kg po alone, time 1.75, time-0 value 254±4)?
**A.** Its value is -10±3.

**Q.** And the “SBP change (quantity not headed in table; as % change of Table I)” value (Compound 3 experiment: Compound (A) 3 mg/kg po alone, time 2.75, time-0 value 254±4)?
**A.** Its value is -12±4.

**Q.** And the “SBP change (quantity not headed in table; as % change of Table I)” value (Compound 3 experiment: Compound (A) 3 mg/kg po alone, time 4.75, time-0 value 254±4)?
**A.** Its value is -21±3.

**Q.** What about the “SBP change (quantity not headed in table; as % change of Table I)” value (Compound 4 experiment: Compound (A) 3 mg/kg po alone, time 0.75, time-0 value 280±5) of the same compound?
**A.** The value was -4±2.

**Q.** What about the “SBP change (quantity not headed in table; as % change of Table I)” value (Compound 4 experiment: Compound (A) 3 mg/kg po alone, time 1.75, time-0 value 280±5) of the same compound?
**A.** Its value is -9±2.

**Q.** And the “SBP change (quantity not headed in table; as % change of Table I)” value (Compound 4 experiment: Compound (A) 3 mg/kg po alone, time 2.75, time-0 value 280±5)?
**A.** Its value is -12±3.

**Q.** And the “SBP change (quantity not headed in table; as % change of Table I)” value (Compound 4 experiment: Compound (A) 3 mg/kg po alone, time 4.75, time-0 value 280±5)?
**A.** Its value is -14±2.

**Q.** And the “% change (± sem) of SBP” value (Group 2: enalapril 3 mg/kg po at 0 h, vehicle at 0.75 h, time 0.75 h, initial SBP 257±3 mmHg)?
**A.** The value was -8±2%.

**Q.** And the “% change (± sem) of SBP” value (Group 2: enalapril 3 mg/kg po at 0 h, vehicle at 0.75 h, time 1.75 h, initial SBP 257±3 mmHg)?
**A.** Its value is -11±4%.

**Q.** What about the “% change (± sem) of SBP” value (Group 2: enalapril 3 mg/kg po at 0 h, vehicle at 0.75 h, time 2.75 h, initial SBP 257±3 mmHg) of the same compound?
**A.** The value was -15±2%.

**Q.** And the “% change (± sem) of SBP” value (Group 2: enalapril 3 mg/kg po at 0 h, vehicle at 0.75 h, time 4.75 h, initial SBP 257±3 mmHg, n=7)?
**A.** Its value is -17±2 (n=7) %.

**Q.** What about the “% change (± s.e.m.) of SBP” value (Pinacidil experiment, Group 2: enalapril 3 mg/kg po at 0 h, vehicle at 0.75 h, time 0.75 h, initial SBP 274±6 mmHg) of the same compound?
**A.** The value was -4±1%.

**Q.** What about the “% change (± s.e.m.) of SBP” value (Pinacidil experiment, Group 2: enalapril 3 mg/kg po at 0 h, vehicle at 0.75 h, time 1.75 h, initial SBP 274±6 mmHg) of the same compound?
**A.** The value was -14±3%.

**Q.** What about the “% change (± s.e.m.) of SBP” value (Pinacidil experiment, Group 2: enalapril 3 mg/kg po at 0 h, vehicle at 0.75 h, time 2.75 h, initial SBP 274±6 mmHg) of the same compound?
**A.** The value was -16±3%.

**Q.** What about the “% change (± s.e.m.) of SBP” value (Pinacidil experiment, Group 2: enalapril 3 mg/kg po at 0 h, vehicle at 0.75 h, time 4.75 h, initial SBP 274±6 mmHg, n=8) of the same compound?
**A.** The value was -17±3(n=8) %.

**Q.** What does the source list for `CC(N/C(=N\C#N)Nc1ccncc1)C(C)(C)C` (stereo not shown) [Pinacidil, Nʺ-Cyano-N-4-pyridyl-Nʹ-1,2,2-trimethylpropylguanidine]?
**A.** % change (± s.e.m.) of SBP (Group 3: vehicle at 0 h, pinacidil 1 mg/kg po at 0.75 h, time 0.75 h (time of pinacidil dosing), initial SBP 269±4 mmHg): +4±1%; % change (± s.e.m.) of SBP (Group 3: vehicle at 0 h, pinacidil 1 mg/kg po at 0.75 h, time 1.75 h, initial SBP 269±4 mmHg, n=8): -33±5(n=8) %; % change (± s.e.m.) of SBP (Group 3: vehicle at 0 h, pinacidil 1 mg/kg po at 0.75 h, time 2.75 h, initial SBP 269±4 mmHg): -19±3%; % change (± s.e.m.) of SBP (Group 3: vehicle at 0 h, pinacidil 1 mg/kg po at 0.75 h, time 4.75 h, initial SBP 269±4 mmHg): -9±3%
